These results are taken from patent US12187681B2 (Shanghai East Hospital, priority 2019, dated 2025).

Where a name gives a salt, the structure may show the parent alone. Bounds are passed on as bounds.

The inhibition is the change of the read-out against control, counted positive when it falls.

Data set [1] concerns the target T1, hERG (human ether-a-go-go related gene potassium channel, KCNH2) (Homo sapiens, UniProt Q12809).
T1 construct: expressed in transfected cells; host or cells: HEK293
Description: hERG channel whole-cell patch clamp (Ion Channel Activity Measurement). In kind it is cell-based. To be noted: human, room temperature; for inhibition at 1 μM: pH 7.4, 1 μM test article; for inhibition at 10 μM: pH 7.4, 10 μM test article. Here is the method: HEK293 cell line expressing the human ERG (ether-a-go-go related gene) potassium channel (Potassium voltage-gated channel subfamily H member 2). cDNA strictly similar to GenBank accession number: NM_000238
(§1) Cells expressing channels were cultured in medium supplemented with 20% FBS in HAM'S F12 culture dish. Cells grew in a humidified incubator at 37° C. under 5% carbon dioxide. To passage cells, remove poor medium and rinse the cells once with PBS 1X. […] Place plate on a 37° C. warming incubator 5 min. As soon as cells are detached, add 5 ml of 37° C. complete medium. Draw cell suspension into a sterile pipet and homogenize cells gently to dissociate cells aggregates. Amplify or maintain the cells by seeding 2.5*105 cells in a 6 cm dish (final volume: 5 ml). To maintain electrophysiological performances, cell density must not exceed 80%. On the day before patch clamp experiment, 3*103 cells were seeded on coverslips in the 24-well plate and incubated at 37° C. in 5% carbon dioxide.
(§2) Glass pipette (BF150-86-10, Sutter Instruments) was made by puller (P97, Sutter Instruments). The glass pipette was manipulated using Micro-manipulator (Carm-C-S, MCI Instruments) under the microscope (AE31EF-INV, Motic). After touching the cell, a slight suction was applied to achieve high seal (GΩ). Fast capacitance (in pF) compensation was made after high seal was achieved; after achieving high seal, the membrane was broken, Cell capacitance (in pF) compensation was made from whole-cell capacitance compensation after the whole cell mode was achieved. No leak subtraction was made.
(§3) Cell was incubated with the test article for 5 minutes, or until the current reached a steady-state level. Multiple concentrations of test article were tested. The test articles were applied gradually from low to high concentration. The test and control solutions were flown into a recording chamber mounted on the stage of an inverted microscope via a gravity-fed solution delivery system. During the experiment, solutions were withdrawn from the recording chamber by vacuum aspiration. Each concentration was tested at multiple times. Each cell acted as its own control. All tests were performed at room temperature (23-25° C.).
hERG current was recorded under a holding potential at −80 mV and then depolarized to 30 mV for 2.5 seconds to activate the hERG channel. The peak tail currents were induced by a repolarizing pulse to −50 mV for 4 seconds. This voltage-clamp pulse protocol was performed continuously during the experiment. An interpulse interval of 10 seconds allowed recovery from inactivation. An interpulse of −50 mV test for 0.5 second before 30 mV depolarized step was included for leak current correction
(In general: hERG is a cardiac potassium channel; its block is linked to QT prolongation.)

For data set [2], the target named is T2, CaV1.2 (L-type voltage-dependent calcium channel; CACNA1C, CACNB2, CACNA2D1) (Homo sapiens, UniProt Q13936).
T2 construct: expressed in transfected cells; host or cells: CHO
T2 sequence (Q13936 1-2138 isoform Q13936-12): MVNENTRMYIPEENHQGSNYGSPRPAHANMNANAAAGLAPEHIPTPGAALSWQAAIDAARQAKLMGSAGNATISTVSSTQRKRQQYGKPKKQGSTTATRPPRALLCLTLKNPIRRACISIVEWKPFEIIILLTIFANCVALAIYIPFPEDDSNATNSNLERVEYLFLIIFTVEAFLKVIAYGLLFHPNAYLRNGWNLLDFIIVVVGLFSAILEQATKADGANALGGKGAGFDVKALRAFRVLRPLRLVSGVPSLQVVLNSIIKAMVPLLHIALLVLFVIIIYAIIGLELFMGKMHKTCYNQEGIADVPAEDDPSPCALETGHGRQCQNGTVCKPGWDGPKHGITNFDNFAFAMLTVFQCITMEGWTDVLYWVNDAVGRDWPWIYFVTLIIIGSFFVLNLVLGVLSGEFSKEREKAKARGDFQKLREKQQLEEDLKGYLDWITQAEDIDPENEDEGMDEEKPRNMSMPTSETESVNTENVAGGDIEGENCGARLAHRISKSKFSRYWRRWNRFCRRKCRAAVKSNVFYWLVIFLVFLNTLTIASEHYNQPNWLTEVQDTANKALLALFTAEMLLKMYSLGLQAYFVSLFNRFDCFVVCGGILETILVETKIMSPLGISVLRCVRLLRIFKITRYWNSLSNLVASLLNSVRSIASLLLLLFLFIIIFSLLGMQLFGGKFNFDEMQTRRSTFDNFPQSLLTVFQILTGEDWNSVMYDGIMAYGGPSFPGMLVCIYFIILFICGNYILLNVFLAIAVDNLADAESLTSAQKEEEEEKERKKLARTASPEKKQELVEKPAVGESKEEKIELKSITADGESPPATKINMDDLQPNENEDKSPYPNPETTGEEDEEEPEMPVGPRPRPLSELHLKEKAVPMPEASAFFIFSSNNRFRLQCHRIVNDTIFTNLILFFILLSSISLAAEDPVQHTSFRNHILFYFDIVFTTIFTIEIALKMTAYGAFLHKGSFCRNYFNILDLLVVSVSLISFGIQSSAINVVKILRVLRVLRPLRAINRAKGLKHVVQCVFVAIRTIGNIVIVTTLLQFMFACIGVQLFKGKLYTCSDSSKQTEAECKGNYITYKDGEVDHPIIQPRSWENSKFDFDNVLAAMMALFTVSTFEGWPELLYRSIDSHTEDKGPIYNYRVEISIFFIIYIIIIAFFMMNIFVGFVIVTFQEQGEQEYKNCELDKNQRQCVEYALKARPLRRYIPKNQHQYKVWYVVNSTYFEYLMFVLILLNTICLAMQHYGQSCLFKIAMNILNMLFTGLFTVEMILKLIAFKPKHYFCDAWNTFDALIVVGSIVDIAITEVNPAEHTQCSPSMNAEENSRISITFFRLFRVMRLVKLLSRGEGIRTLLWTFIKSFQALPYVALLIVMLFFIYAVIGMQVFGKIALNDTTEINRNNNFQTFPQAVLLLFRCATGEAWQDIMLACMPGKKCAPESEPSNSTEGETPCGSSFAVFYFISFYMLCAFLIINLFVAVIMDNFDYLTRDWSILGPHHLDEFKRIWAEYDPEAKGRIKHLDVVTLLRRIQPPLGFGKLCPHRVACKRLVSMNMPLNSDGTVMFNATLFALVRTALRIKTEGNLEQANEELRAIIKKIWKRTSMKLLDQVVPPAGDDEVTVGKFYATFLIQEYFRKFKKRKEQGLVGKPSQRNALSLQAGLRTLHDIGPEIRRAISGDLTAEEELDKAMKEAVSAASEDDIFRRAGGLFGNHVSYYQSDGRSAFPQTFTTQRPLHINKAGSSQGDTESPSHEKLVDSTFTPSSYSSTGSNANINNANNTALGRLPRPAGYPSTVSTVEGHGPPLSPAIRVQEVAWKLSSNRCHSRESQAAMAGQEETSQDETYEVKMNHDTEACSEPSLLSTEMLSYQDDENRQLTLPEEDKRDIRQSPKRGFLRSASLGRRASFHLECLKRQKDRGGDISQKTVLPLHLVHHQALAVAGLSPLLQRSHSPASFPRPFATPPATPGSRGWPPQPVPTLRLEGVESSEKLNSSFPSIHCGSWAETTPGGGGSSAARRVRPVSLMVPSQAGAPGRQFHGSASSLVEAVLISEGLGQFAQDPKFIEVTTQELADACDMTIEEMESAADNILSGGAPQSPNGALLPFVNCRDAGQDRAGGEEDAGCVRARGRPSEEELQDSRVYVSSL
T2 sequence (Q08289 1-605 isoform Q08289-2 partner): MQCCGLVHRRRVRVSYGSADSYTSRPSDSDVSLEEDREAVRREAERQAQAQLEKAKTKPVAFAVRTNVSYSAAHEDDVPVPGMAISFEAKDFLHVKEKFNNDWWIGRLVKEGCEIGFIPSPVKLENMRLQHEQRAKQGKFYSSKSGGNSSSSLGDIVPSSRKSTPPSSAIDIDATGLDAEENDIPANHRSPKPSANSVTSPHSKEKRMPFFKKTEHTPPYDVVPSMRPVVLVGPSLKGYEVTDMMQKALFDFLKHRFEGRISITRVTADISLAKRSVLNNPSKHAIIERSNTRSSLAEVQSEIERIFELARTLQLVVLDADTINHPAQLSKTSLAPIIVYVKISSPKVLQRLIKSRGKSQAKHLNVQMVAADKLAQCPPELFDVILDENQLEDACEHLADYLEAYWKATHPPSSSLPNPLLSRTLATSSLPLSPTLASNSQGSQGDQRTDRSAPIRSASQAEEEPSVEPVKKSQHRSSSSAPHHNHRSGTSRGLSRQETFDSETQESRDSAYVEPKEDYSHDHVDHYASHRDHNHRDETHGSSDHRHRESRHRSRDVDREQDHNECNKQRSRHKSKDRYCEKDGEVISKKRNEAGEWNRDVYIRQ
T2 sequence (P54289 25-1091 isoform P54289-2 partner limits assumed): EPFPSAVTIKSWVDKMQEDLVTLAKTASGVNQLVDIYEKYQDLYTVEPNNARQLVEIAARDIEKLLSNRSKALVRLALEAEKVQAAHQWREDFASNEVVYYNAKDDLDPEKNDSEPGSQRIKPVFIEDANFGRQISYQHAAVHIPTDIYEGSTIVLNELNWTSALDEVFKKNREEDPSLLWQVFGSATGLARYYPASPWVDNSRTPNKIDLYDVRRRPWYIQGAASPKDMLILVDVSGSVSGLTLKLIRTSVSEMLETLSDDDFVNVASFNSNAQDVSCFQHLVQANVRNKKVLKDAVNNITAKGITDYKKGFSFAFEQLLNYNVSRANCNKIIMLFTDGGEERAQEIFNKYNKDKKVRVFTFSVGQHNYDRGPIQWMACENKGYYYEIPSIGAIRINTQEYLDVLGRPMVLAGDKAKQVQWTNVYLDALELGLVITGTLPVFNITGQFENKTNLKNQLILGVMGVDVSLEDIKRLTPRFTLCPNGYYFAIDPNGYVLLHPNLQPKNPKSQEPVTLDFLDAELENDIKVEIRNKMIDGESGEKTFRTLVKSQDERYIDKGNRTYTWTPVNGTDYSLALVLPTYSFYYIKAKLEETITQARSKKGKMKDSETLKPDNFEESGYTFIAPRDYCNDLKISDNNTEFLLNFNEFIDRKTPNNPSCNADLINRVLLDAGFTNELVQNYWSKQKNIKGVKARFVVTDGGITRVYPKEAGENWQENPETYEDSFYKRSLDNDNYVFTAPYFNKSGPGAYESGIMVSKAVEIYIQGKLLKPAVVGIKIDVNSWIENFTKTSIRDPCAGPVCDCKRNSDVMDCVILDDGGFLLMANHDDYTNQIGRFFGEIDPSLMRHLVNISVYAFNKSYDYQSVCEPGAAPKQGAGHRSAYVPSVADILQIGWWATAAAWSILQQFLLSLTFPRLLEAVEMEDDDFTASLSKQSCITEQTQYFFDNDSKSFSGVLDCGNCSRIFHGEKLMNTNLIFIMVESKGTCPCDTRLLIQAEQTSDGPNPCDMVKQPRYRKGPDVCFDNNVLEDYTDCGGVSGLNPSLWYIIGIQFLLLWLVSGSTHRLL
T2 sequence (P54289 957-1103 partner limits assumed): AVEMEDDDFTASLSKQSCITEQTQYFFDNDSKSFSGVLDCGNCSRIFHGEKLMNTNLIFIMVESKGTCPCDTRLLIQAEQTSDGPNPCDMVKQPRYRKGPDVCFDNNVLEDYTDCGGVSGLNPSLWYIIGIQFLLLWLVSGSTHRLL
The data set is described as follows: CaV1.2 channel whole-cell patch clamp (Ion Channel Activity Measurement). In kind it is cell-based. The note with it: human, room temperature; for inhibition at 5 min, 1 μM: pH 7.4, 1 μM test article; for inhibition at 5 min, 10 μM: pH 7.4, 10 μM test article, read-out: CaV 1.2 10 μM (ion-channel inhibition). Here is the method: • CHO cell line stably expressing human calcium channel, voltage-dependent, L type, • CACNA1C: cDNA strictly similar to GenBank accession number: NM_000719 • CACNB2: cDNA strictly similar to GenBank accession number: NM_000724 • CACNA2D1: cDNA strictly similar to GenBank accession number: NM_000722 Iks Channel Cell Line:
as §1
Bath solution: 140 mM TEA-C1, 2 mM MgCl2·6H2O, 10 mM CaCl2, 10 mM HEPES, 5 mM D-glucose, pH=7.4 with TEA-OH. Pipette solution: 120 mM CsCl, 1 mM MgCl2·6H2O, 10 mM HEPES, 10 mM EGTA, 0.3 mM Na2-GTP, 4 mM Mg-ATP, pH=7.2 with CsOH.
as §2, §3
Cav1.2 current was recorded under a holding potential at −80 mV and then depolarized to +10 mV for 0.3 seconds. This protocol was repeated at 20 s intervals to observe the effect of test articles on the peak of Cav1.2 current.
Background: Patch clamp records ionic current or voltage across a cell membrane.

Where [3] appears, read: HEK293 cells expressing the human ERG potassium channel.

T1 sequence (Q12809 whole entry): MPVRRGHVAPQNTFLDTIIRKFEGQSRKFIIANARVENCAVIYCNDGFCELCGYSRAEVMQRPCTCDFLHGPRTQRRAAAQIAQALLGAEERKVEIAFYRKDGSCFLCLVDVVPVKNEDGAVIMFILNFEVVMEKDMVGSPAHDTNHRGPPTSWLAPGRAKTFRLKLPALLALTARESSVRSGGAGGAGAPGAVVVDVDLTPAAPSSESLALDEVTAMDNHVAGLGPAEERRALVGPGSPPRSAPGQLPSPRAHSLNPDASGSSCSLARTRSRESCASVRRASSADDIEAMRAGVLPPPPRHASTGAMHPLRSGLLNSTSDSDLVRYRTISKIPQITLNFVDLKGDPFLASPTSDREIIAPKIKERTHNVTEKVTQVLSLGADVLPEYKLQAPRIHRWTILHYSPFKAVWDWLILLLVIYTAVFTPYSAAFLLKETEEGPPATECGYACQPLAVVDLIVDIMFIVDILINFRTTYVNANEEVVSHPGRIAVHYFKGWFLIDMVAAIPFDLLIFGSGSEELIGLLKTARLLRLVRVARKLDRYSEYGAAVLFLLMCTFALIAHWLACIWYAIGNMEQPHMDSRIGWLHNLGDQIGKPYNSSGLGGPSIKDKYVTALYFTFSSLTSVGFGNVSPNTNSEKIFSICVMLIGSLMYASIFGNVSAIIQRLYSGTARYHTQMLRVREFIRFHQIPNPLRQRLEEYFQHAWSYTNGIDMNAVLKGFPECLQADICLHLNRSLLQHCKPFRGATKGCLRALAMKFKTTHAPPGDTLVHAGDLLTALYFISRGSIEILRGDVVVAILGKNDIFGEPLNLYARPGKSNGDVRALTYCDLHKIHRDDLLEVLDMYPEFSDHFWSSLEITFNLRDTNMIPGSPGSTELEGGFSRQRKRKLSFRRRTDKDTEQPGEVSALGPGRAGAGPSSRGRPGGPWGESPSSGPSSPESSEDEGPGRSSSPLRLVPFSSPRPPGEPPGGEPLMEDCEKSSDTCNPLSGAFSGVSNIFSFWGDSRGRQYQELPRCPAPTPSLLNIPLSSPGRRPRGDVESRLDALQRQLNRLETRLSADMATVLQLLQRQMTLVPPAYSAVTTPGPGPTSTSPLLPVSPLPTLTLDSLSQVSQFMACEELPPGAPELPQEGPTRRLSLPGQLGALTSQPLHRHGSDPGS

In data set [1] (setting [3]), `CC(c1c(O)ccc2ccccc12)c1c(O)ccc2ccccc12` [Compound A012, 1,1′-(ethane-1,1-diyl) bis (naphthalen-2-ol)] returned an inhibition at 1 μM of less than 25% and an inhibition at 10 μM of 25 to 50%. Also, in data set [2], the inhibition at 5 min, 1 μM is less than 25% and the inhibition at 5 min, 10 μM was 75 to 100%.

Molecule `COc1ccc2ccccc2c1Cc1c(COCCN2CCCC2)ccc2ccccc12` [Compound A296, 1-(2-((1-((2-methoxynaphthalen-1-yl)methyl)naphthalen-2-yl)methoxy)ethyl)pyrrolidine] showed an inhibition at 1 μM in data set [1] of 75 to 100%. Moreover, in data set [2], the inhibition at 5 min, 1 μM is less than 25% and the inhibition at 5 min, 10 μM lay in the range of 75 to 100%.

In data set [1] (setting [3]), `CCN(CC)CCOc1ccc2ccccc2c1Cc1c(OCc2ccccc2)ccc2ccccc12` [Compound A290, 2-((1-((2-(benzyloxy)naphthalen-1-yl)methyl)naphthalen-2-yl)oxy)-N,N-diethylethan-1-amine] returned an inhibition at 1 μM of 75 to 100% and an inhibition at 10 μM of 75 to 100%. In data set [2], the inhibition at 5 min, 1 μM lay in the range of 25 to 50% and the inhibition at 5 min, 10 μM is 50 to 75%.

In the case of `COc1cc2ccccc2c(Cc2c(O)c(OC)cc3ccccc23)c1O` [Compound A050, 1,1′-methylenebis(3-methoxynaphthalen-2-ol)], in data set [1] (setting [3]), the inhibition at 1 μM is less than 25% and the inhibition at 10 μM is less than 25%. In data set [2], the inhibition at 5 min, 1 μM is less than 25% and the inhibition at 5 min, 10 μM was less than 25%.

In data set [1] (setting [3]), `CCN(CC)CCOc1c(C(C)C)cc2ccccc2c1Cc1c(O)c(C(C)C)cc2ccccc12` [Compound A102, 1-((2-(2-(diethylamino)ethoxy)-3-isopropylnaphthalen-1-yl)methyl)-3-isopropylnaphthalen-2-ol hydrochloride Salt] returned an inhibition at 1 μM of 50 to 75% and an inhibition at 10 μM of 75 to 100%. Also, in data set [2], the inhibition at 5 min, 1 μM was less than 25% and the inhibition at 5 min, 10 μM was in the range of 75 to 100%.

`Oc1ccc2ccccc2c1Cc1c(OCCN2CCCCC2)ccc2ccccc12` [Compound A138, 1-((2-(2-(piperidin-1-yl)ethoxy)naphthalen-1-yl)methyl)naphthalen-2-ol] had an inhibition at 1 μM in data set [1] (setting [3]) of 75 to 100%. For the same molecule, in data set [2], the inhibition at 5 min, 1 μM was less than 25% and the inhibition at 5 min, 10 μM lay within 75 to 100%.

In data set [1] (setting [3]), `Cc1ccc(O)c(Cc2c(O)ccc(C)c2C)c1C` [Compound A017, 2,2′-methylenebis(3,4-dimethylphenol)] came in with an inhibition at 1 μM of less than 25% and an inhibition at 10 μM of 25 to 50%. Besides, in data set [2], the inhibition at 5 min, 1 μM was less than 25% and the inhibition at 5 min, 10 μM fell in the range of 25 to 50%.

In data set [1] (setting [3]), `Cc1cc2ccccc2c(Cc2c(O)c(C)cc3ccccc23)c1O` [Compound A032, 1,1′-methylenebis(3-methylnaphthalen-2-ol)] came in with an inhibition at 1 μM of less than 25% and an inhibition at 10 μM of less than 25%. In addition, in data set [2], the inhibition at 5 min, 1 μM was less than 25% and the inhibition at 5 min, 10 μM was less than 25%.

`CCCCCCOc1ccc2ccccc2c1Cc1c(OCCN)ccc2ccccc12` [Compound A247, 2-((1-((2-(hexyloxy)naphthalen-1-yl)methyl)naphthalen-2-yl)oxy)ethan-1-amine] yielded an inhibition at 1 μM in data set [1] (setting [3]) of less than 25%. Also, the inhibition at 5 min, 1 μM in data set [2] is less than 25%.

In data set [1] (setting [3]), `Oc1cccc(-c2cccnc2)c1Cc1c(O)cccc1-c1cccnc1` [Compound A117, 2,2′-methylenebis(3-(pyridin-3-yl)phenol)] gave an inhibition at 1 μM of less than 25% and an inhibition at 10 μM of less than 25%. Also, in data set [2], the inhibition at 5 min, 1 μM was less than 25% and the inhibition at 5 min, 10 μM was in the range of 25 to 50%.

Take `CCOCOc1ccc2ccccc2c1Cc1c(OCCN)ccc2ccccc12` [Compound A244, 2-((1-((2-(ethoxymethoxy)naphthalen-1-yl)methyl)naphthalen-2-yl)oxy)ethan-1-amine]: in data set [1] (setting [3]), the inhibition at 1 μM lay within 75 to 100% and the inhibition at 10 μM lay in the range of 75 to 100%. Further, in data set [2], the inhibition at 5 min, 1 μM is less than 25% and the inhibition at 5 min, 10 μM is 25 to 50%.

In the case of `Oc1ccc2ccccc2c1Cc1c(O)ccc2ccncc12` [Compound A109, 8-((2-hydroxynaphthalen-1-yl)methyl)isoquinolin-7-ol], in data set [1] (setting [3]), the inhibition at 1 μM is less than 25% and the inhibition at 10 μM lay in the range of 75 to 100%. In data set [2], the inhibition at 5 min, 1 μM was 25 to 50% and the inhibition at 5 min, 10 μM lay in the range of 50 to 75%.

As for `Oc1ccc2c(c1Cc1c(O)ccc3ccccc13)CNCC2` [Compound A141, 8-((2-hydroxynaphthalen-1-yl)methyl)-1,2,3,4-tetrahydroisoquinolin-7-ol], in data set [1] (setting [3]), the inhibition at 1 μM is less than 25% and the inhibition at 10 μM was in the range of 25 to 50%. Besides, in data set [2], the inhibition at 5 min, 1 μM was less than 25% and the inhibition at 5 min, 10 μM is less than 25%.

In data set [1] (setting [3]), `O=C(Nc1c(O)ccc2ccccc12)c1c(O)ccc2ccccc12` [Compound A044, 2-hydroxy-N-(2-hydroxynaphthalen-1-yl)-1-naphthamide] had an inhibition at 1 μM of less than 25% and an inhibition at 10 μM of 25 to 50%. Further, in data set [2], the inhibition at 5 min, 1 μM was less than 25% and the inhibition at 5 min, 10 μM is less than 25%.

In data set [1] (setting [3]), `COc1cccc(-c2cccnc2)c1Cc1c(O)cccc1-c1cccnc1` [Compound A117-I-1, 2-(2-methoxy-6-(pyridin-3-yl)benzyl)-3-(pyridin-3-yl)phenol] registered an inhibition at 1 μM of less than 25% and an inhibition at 10 μM of 25 to 50%. In addition, in data set [2], the inhibition at 5 min, 1 μM is less than 25% and the inhibition at 5 min, 10 μM was less than 25%.

In data set [1] (setting [3]), `COc1ccc2ccccc2c1Cc1c(OCCO)ccc2ccccc12` [Compound A139-2, 2-((1-((2-methoxynaphthalen-1-yl)methyl)naphthalen-2-yl)oxy)ethan-1-ol] returned an inhibition at 1 μM of 75 to 100% and an inhibition at 10 μM of 75 to 100%. In data set [2], the inhibition at 5 min, 1 μM was less than 25% and the inhibition at 5 min, 10 μM was in the range of 75 to 100%.

In data set [1] (setting [3]), `Oc1ccc2ccccc2c1Cc1c(O)ncc2ccccc12` [Compound A027, 4-((2-hydroxynaphthalen-1-yl)methyl)isoquinolin-3-ol] came in with an inhibition at 1 μM of less than 25% and an inhibition at 10 μM of less than 25%. In addition, in data set [2], the inhibition at 5 min, 1 μM was less than 25% and the inhibition at 5 min, 10 μM is 25 to 50%.

Turning to `CCN(CC)CCOc1ccc2ccccc2c1Cc1c(OCCN(CC)CC)ccc2ccccc12` [Compound A103, 2,2′-((methylenebis(naphthalene-1,2-diyl))bis(oxy))bis(N,N-diethylethan-1-amine) formic acid], in data set [2], the inhibition at 5 min, 1 μM is less than 25% and the inhibition at 5 min, 10 μM was less than 25%.

Regarding `CS(=O)(=O)Nc1cc2ccccc2cc1Cc1c(NS(C)(=O)=O)ccc2ccccc12` [Compound A024-3, N-(3-((2-(methylsulfonamido)naphthalen-1-yl)methyl)naphthalen-2-yl)methanesulfonamide], in data set [2], the inhibition at 5 min, 1 μM was less than 25% and the inhibition at 5 min, 10 μM lay in the range of 25 to 50%.

On to `CS(=O)(=O)Nc1ccc2ccccc2c1Cc1c(NS(C)(=O)=O)ccc2ccccc12` [Compound A024, N,N′-(methylenebis(naphthalene-1,2-diyl))dimethanesulfonamide], for which, in data set [2], the inhibition at 5 min, 1 μM is less than 25% and the inhibition at 5 min, 10 μM was less than 25%.

Turning to `CC(C)Oc1ccc2ccccc2c1Cc1c(OCCN)ccc2ccccc12` [Compound A246, 2-((1-((2-isopropoxynaphthalen-1-yl)methyl)naphthalen-2-yl)oxy)ethan-1-amine], the inhibition at 1 μM in data set [1] (setting [3]) was in the range of 25 to 50%.
